Results taken from the supplement of paper PMC6045584.
± gives the standard deviation of the averaged measurements.

Columns and labels:
AZD4547 = compound: COc1cc(CCc2cc(NC(=O)c3ccc(N4CC(C)NC(C)C4)cc3)n[nH]2)cc(OC)c1 [AZD4547]; assay: surviving fraction relative to DMSO-only wells; higher = less growth inhibition; details: exposure time: 5 days
Summary of the method: (§1)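 Surviving fraction was calculated by normalising CellTiter-Glo luminescence to the median of DMSO-only wells. Tumour cell lines in log phase were seeded in 384-well plates at 250–500 cells per well, and 24 hours later were exposed continuously for five days to inhibitors at 0.5, 1, 5, 10, 50, 100, 500 and 1000 nM.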

ETOPOSIDE = compound: COc1cc([C@@H]2c3cc4c(cc3[C@@H](O[C@@H]3O[C@@H]5CO[C@@H](C)O[C@H]5[C@H](O)[C@H]3O)[C@H]3COC(=O)[C@H]23)OCO4)cc(OC)c1O [ETOPOSIDE]; assay: as above; details: exposure time: 5 days
Summary of the method: as §1

Test System	surviving fraction (AZD4547; 0.5 nM)	surviving fraction (AZD4547; 1 nM)	surviving fraction (AZD4547; 5 nM)	surviving fraction (AZD4547; 10 nM)	surviving fraction (AZD4547; 50 nM)	surviving fraction (AZD4547; 100 nM)	surviving fraction (AZD4547; 500 nM)	surviving fraction (AZD4547; 1000 nM)	surviving fraction (ETOPOSIDE; 0.5 nM)	surviving fraction (ETOPOSIDE; 1 nM)	surviving fraction (ETOPOSIDE; 5 nM)	surviving fraction (ETOPOSIDE; 10 nM)	surviving fraction (ETOPOSIDE; 50 nM)	surviving fraction (ETOPOSIDE; 100 nM)	surviving fraction (ETOPOSIDE; 500 nM)	surviving fraction (ETOPOSIDE; 1000 nM)
C33A CERVIX	0.847 ± 0.084	0.948 ± 0.074	0.96 ± 0.027	0.969 ± 0.099	0.915 ± 0.015	0.953 ± 0.1	0.811 ± 0.024	0.75 ± 0.086	0.794 ± 0.11	0.967 ± 0.064	0.918 ± 0.016	1.05 ± 0.071	0.923 ± 0.045	0.726 ± 0.024	0.251 ± 0.027	0.155 ± 0.01
CAL72 BONE	1.08 ± 0.022	1.096 ± 0.0035	1.05 ± 0.043	0.791 ± 0.067	0.331 ± 0.028	0.257 ± 0.013	0.19 ± 0.031	0.158 ± 0.026	1.05 ± 0.026	1.05 ± 0.037	1.06 ± 0.048	1.05 ± 0.05	1.07 ± 0.051	1.07 ± 0.039	0.684 ± 0.029	0.358 ± 0.03
G292 BONE	0.93 ± 0.062	0.917 ± 0.035	0.801 ± 0.018	0.566 ± 0.0083	0.207 ± 0.0036	0.173 ± 0.011	0.138 ± 0.021	0.107 ± 0.0059	0.964 ± 0.035	0.976 ± 0.041	1 ± 0.087	0.978 ± 0.06	0.942 ± 0.02	0.796 ± 0.014	0.437 ± 0.019	0.352 ± 0.012
HUO3N1 BONE	1.01 ± 0.05	0.976 ± 0.015	1.05 ± 0.059	0.95 ± 0.072	0.85 ± 0.022	0.816 ± 0.018	0.693 ± 0.04	0.608 ± 0.018	0.956 ± 0.017	0.936 ± 0.05	0.982 ± 0.06	1.01 ± 0.042	1.01 ± 0.019	0.96 ± 0.057	0.519 ± 0.01	0.376 ± 0.012
LNCAP PROSTATE	0.881 ± 0.092	0.995 ± 0.12	0.861 ± 0.036	0.829 ± 0.043	0.821 ± 0.13	0.903 ± 0.037	0.752 ± 0.11	0.857 ± 0.25	0.86 ± 0.18	0.951 ± 0.078	0.868 ± 0.13	0.94 ± 0.058	0.9023 ± 0.0057	0.77 ± 0.051	0.438 ± 0.046	0.301 ± 0.025
SCC003 HEADNECK	1.05 ± 0.091	1.03 ± 0.014	1.13 ± 0.06	1.1 ± 0.083	1.07 ± 0.021	1.1 ± 0.065	1.02 ± 0.088	0.996 ± 0.071	1.04 ± 0.092	1.05 ± 0.13	1.11 ± 0.069	1.07 ± 0.051	1.1 ± 0.063	1.08 ± 0.068	0.849 ± 0.15	0.604 ± 0.041
